Assay results: the supplement of paper PMC10307832

Legend:
Assay in all cases: relative viability (nuclei count vs DMSO), 5 days (fraction); higher = more cells survive
[1] = compound: CC(C)CCN1c2nc(Nc3cc(F)c(O)c(F)c3)ncc2N(C)C(=O)C1C [BI-D1870] + CC(=O)Nc1cccc(-n2c(=O)n(C3CC3)c(=O)c3c(Nc4ccc(I)cc4F)n(C)c(=O)c(C)c32)c1 [Trametinib] (partner 0.02 µM)
Outline: (§1)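 Relative viability divides the nuclei count in treated wells by that in vehicle wells. Lung cancer cell lines were seeded in 1536-well plates, dosed by pin tool the next day, and fixed and stained after 5 days in one step with final 0.05% Triton X-100, 1% formaldehyde and 1 ug/ml Hoechst. Dosing was a single drug or a fixed anchor-drug dose plus five library-drug doses (not always all listed) in √10 steps, and values are medians of duplicate plates imaged at 4×.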

[2] = compound: CC(C)CCN1c2nc(Nc3cc(F)c(O)c(F)c3)ncc2N(C)C(=O)C1C [BI-D1870] + C[C@]1(O)C[C@@H](c2nc(-c3ccc4ccc(-c5ccccc5)nc4c3)c3c(N)nccn32)C1 [Linsitinib] (partner 1 µM)
Outline: as §1

[3] = compound: CC(C)CCN1c2nc(Nc3cc(F)c(O)c(F)c3)ncc2N(C)C(=O)C1C [BI-D1870] + CC1(C)CCC(c2ccc(Cl)cc2)=C(CN2CCN(c3ccc(C(=O)NS(=O)(=O)c4ccc(N[C@H](CCN5CCOCC5)CSc5ccccc5)c(S(=O)(=O)C(F)(F)F)c4)cc3)CC2)C1 [Navitoclax] (partner 0.5 µM)
Outline: as §1

[4] = compound: CC(C)CCN1c2nc(Nc3cc(F)c(O)c(F)c3)ncc2N(C)C(=O)C1C [BI-D1870] + CC(=O)c1c(C)c2cnc(Nc3ccc(N4CCNCC4)cn3)nc2n(C2CCCC2)c1=O [Palbociclib] (partner 0.5 µM)
Outline: as §1

Row | Cell Line | relative viability ([1]; first compound 0.04 µM) | relative viability ([1]; first compound 0.1265 µM) | relative viability ([1]; first compound 0.4 µM) | relative viability ([1]; first compound 1.265 µM) | relative viability ([1]; first compound 4 µM) | relative viability ([2]; first compound 0.04 µM) | relative viability ([2]; first compound 0.1265 µM) | relative viability ([2]; first compound 0.4 µM) | relative viability ([2]; first compound 1.265 µM) | relative viability ([2]; first compound 4 µM) | relative viability ([3]; first compound 0.04 µM) | relative viability ([3]; first compound 0.1265 µM) | relative viability ([3]; first compound 0.4 µM) | relative viability ([3]; first compound 1.265 µM) | relative viability ([3]; first compound 4 µM) | relative viability ([4]; first compound 0.04 µM) | relative viability ([4]; first compound 0.1265 µM) | relative viability ([4]; first compound 0.4 µM) | relative viability ([4]; first compound 1.265 µM) | relative viability ([4]; first compound 4 µM)
1 | 201T | 0.694 | 0.683 | 0.703 | 0.705 | 0.715 | 1.05 | 1.09 | 1.06 | 1.04 | 1.07 | 1.18 | 1.18 | 1.19 | 1.23 | 1.19 | 0.358 | 0.339 | 0.362 | 0.365 | 0.356
2 | A549 |  |  |  |  |  | 0.703 | 0.57 | 0.588 | 0.649 | 0.573 | 1.31 | 1.15 | 1.28 | 1.15 | 0.123 |  |  |  |  | 
3 | A-427 | 0.763 | 0.678 | 0.755 | 0.833 | 0.814 | 1.14 | 1.1 | 1.13 | 1.17 | 1.17 | 1.1 | 0.958 | 0.922 | 0.997 | 0.999 | 0.59 | 0.488 | 0.532 | 0.555 | 0.495
4 | ABC-1 |  |  |  |  |  | 0.857 | 0.835 | 0.718 | 0.946 | 0.782 |  |  |  |  |  | 0.973 | 0.708 | 0.667 | 0.849 | 0.679
5 | BEN | 1.01 | 0.896 | 1.05 | 1.04 | 0.963 | 0.956 | 0.859 | 0.914 | 1.01 | 0.961 | 0.0563 | 0.0674 | 0.0746 | 0.383 | 0.0789 | 0.486 | 0.45 | 0.472 | 0.46 | 0.423
6 | CAL-12T | 0.353 | 0.305 | 0.405 | 0.351 | 0.311 | 0.935 | 0.559 | 0.749 | 0.79 | 0.704 | 1.35 | 1.03 | 1.19 | 1.07 | 1.08 | 0.593 | 0.399 | 0.34 | 0.336 | 0.203
7 | COR-L23 | 0.75 | 0.536 | 0.589 | 0.622 | 0.572 | 0.896 | 0.927 | 0.92 | 0.996 | 0.536 | 1.15 | 0.951 | 1.06 | 1.1 | 0.479 | 0.281 | 0.24 | 0.315 | 0.257 | 0.278
8 | COR-L 105 | 0.428 | 0.409 | 0.487 | 0.419 | 0.458 | 1.11 | 0.813 | 0.926 | 0.856 | 0.666 | 0.863 | 0.673 | 0.761 | 0.997 | 0.75 | 0.412 | 0.395 | 0.407 | 0.41 | 0.425
9 | Calu-6 |  |  |  |  |  | 1.04 | 0.896 | 0.889 | 0.884 | 0.744 | 0.989 | 0.829 | 0.823 | 0.671 | 0.352 |  |  |  |  | 
10 | ChaGo-K-1 | 0.899 | 0.753 | 0.874 | 0.909 | 0.856 |  |  |  |  |  | 0.94 | 0.976 | 0.808 | 1.03 | 0.654 | 0.907 | 0.876 | 0.887 | 0.978 | 0.949
11 | EBC-1 |  |  |  |  |  | 1.17 | 0.616 | 0.75 | 0.582 | 0.682 | 0.433 | 0.424 | 0.367 | 0.194 | 0.134 |  |  |  |  | 
12 | EKVX | 0.336 | 0.281 | 0.339 | 0.401 | 0.445 | 1.14 | 0.933 | 1 | 1.05 | 0.893 | 1.01 | 0.909 | 0.889 | 1 | 0.922 | 0.472 | 0.366 | 0.352 | 0.385 | 0.341
13 | EMC-BAC-2 | 1.05 | 0.852 | 0.89 | 1.13 | 1.09 | 0.864 | 0.748 | 0.792 | 0.802 | 0.799 | 1.24 | 1.06 | 1.09 | 1.21 | 1.18 | 0.555 | 0.505 | 0.511 | 0.544 | 0.483
14 | EPLC-272H | 0.292 | 0.258 | 0.302 | 0.298 | 0.306 | 1.22 | 1.15 | 1.34 | 1.22 | 1.14 | 1.3 | 0.932 | 1.05 | 1.24 | 1.03 | 0.323 | 0.358 | 0.306 | 0.288 | 0.23
15 | H3255 | 0.655 | 0.506 | 0.568 | 0.661 | 0.599 | 0.94 | 0.959 | 0.935 | 1.1 | 0.907 | 0.688 | 0.598 | 0.56 | 0.595 | 0.468 | 0.335 | 0.311 | 0.325 | 0.335 | 0.321
16 | HARA | 0.613 | 0.548 | 0.702 | 0.876 | 1.04 | 1.1 | 0.897 | 1.03 | 1.09 | 0.873 | 1.2 | 1.13 | 1.16 | 1.23 | 1.08 | 0.219 | 0.234 | 0.263 | 0.272 | 0.23
